Source: paper PMC8601423 (PLoS ONE, 2021)
Values joined by “and” are separate entries in the source; they are usually repeats but may differ in a detail not shown here. Equal values may be shown once.

Assays:
purified human ACE2-Fc = target: T1, purified human ACE2-Fc (Homo sapiens, UniProt Q9BYF1); assay: biochemical; type: binding
T1 construct: purified recombinant human ACE2-Fc (Q18 –S740, peptidase domain) protein; purchased GenScript

[1] = test system: SRBD internalisation in ACE2 expressing A549 cells; type: cell-based, human
[2] = test system: SARS CoV-2 S-protein (Wuhan-Hu-1 strain, spike trimer) expressing PsV, HEK293T cells stably expressing human ACE2; type: cell-based, SARS-CoV-2 (Wuhan-Hu-1 strain)
[3] = test system: IL-1β mRNA, human coronary microvascular endothelial cells; type: cell-based
[4] = test system: IL-6 mRNA, human coronary microvascular endothelial cells; type: cell-based
[5] = test system: VCAM mRNA, human coronary microvascular endothelial cells; type: cell-based
[6] = test system: MCP-1 mRNA, human coronary microvascular endothelial cells; type: cell-based

T1 sequence (Q9BYF1 18-740): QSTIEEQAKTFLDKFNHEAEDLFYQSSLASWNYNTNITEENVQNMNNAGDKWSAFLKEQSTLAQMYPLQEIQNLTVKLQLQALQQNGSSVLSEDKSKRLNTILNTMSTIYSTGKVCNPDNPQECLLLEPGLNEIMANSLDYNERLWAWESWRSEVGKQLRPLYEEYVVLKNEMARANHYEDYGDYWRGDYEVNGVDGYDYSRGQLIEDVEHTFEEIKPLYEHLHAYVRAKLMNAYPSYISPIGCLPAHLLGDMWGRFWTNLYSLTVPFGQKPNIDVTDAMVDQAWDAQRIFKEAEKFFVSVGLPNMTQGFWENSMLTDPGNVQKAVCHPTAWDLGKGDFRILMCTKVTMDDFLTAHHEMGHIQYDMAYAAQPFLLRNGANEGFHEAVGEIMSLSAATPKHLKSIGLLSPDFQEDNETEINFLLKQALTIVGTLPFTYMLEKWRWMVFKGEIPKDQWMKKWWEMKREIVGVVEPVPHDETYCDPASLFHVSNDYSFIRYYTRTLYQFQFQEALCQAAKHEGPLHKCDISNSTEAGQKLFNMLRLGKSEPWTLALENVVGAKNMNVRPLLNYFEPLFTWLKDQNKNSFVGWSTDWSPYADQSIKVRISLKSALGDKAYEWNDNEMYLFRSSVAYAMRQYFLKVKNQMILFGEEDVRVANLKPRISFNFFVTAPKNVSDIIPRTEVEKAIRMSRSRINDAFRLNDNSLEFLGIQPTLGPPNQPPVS

Row | Compound | Kd (purified human ACE2-Fc) [nM] | inhibition of SRBD internalisation (in words) [1] | inhibition of spike PsV cell entry (in words) ([2]; N = 3) | IL-1β mRNA expression, peptide alone [3] | S1 induced IL-1β mRNA expression, peptide pre-treated [3] | IL-6, MEAN [4] | IL-6 mRNA expression, peptide alone [4] | S1 induced IL-6 mRNA expression, peptide pre-treated [4] | S1 induced VCAM mRNA expression, peptide pre-treated [5] | VCAM mRNA expression, peptide alone [5] | MCP-1 mRNA expression, peptide alone [6] | S1 induced MCP-1 mRNA expression, peptide pre-treated [6] | binding to ACE2 (in words) (purified human ACE2-Fc) | inhibition of spike PsV cell entry by soluble ACE2 (in words) [2]
1 | CC(=O)N[C@@H](CO)C(=O)N[C@@H](CCCCN)C(=O)N[C@H](C(=O)NCC(=O)NCC(=O)N[C@@H](CC(N)=O)C(=O)N[C@@H](Cc1ccc(O)cc1)C(=O)N[C@@H](CC(N)=O)C(=O)N[C@@H](Cc1ccc(O)cc1)C(=O)N[C@@H](CC(C)C)C(=O)N[C@@H](Cc1ccc(O)cc1)C(=O)N[C@@H](CCCNC(=N)N)C(=O)N[C@@H](CC(C)C)C(=O)N[C@@H](Cc1ccccc1)C(=O)N[C@@H](CCCNC(=N)N)C(=O)N[C@@H](CCCCN)C(N)=O)C(C)C [RBM1] | 207 | marked, yet non-significant reduction | did not inhibit PsV cell entry | did not mimic S1 protein-induced inflammation | did not attenuate the S1 induced inflammatory response | 0.7896 and 1.445 | did not mimic S1 protein-induced inflammation | did not attenuate the S1 induced inflammatory response | did not attenuate the S1 induced inflammatory response | did not mimic S1 protein-induced inflammation | did not mimic S1 protein-induced inflammation | did not attenuate the S1 induced inflammatory response |  | 
2 | Ac-NYGLQGSPFGYQETPYPFCNFVQYG-NH2 [RBM2A-Sc] |  | did not significantly inhibit SRBD-mediated internalisation |  |  |  | 0.966 and 1.58 |  |  |  |  |  |  | appeared to bind to ACE2 in a dose-dependent manner (Fig 4C) saturation of ACE2 binding was not achieved | 
3 | soluble ACE2 protein |  |  |  |  |  |  |  |  |  |  |  |  |  | completely blocked spike PsV cell entry
